Values of other authors as cited in PMC5107951 (Scientific Reports, 2016).

Tested on: GABA-A receptor
Conditions: cited from earlier work

Substance | binding to GABA-A receptor (in words)
α-cobratoxin | also binds
α-conotoxin ImI | low affinity
